Each compound was assayed against T1, FLuc-C-HiBiT (Photinus pyralis, UniProt P08659) (assay: biochemical). Details: enzyme activity, 10 uM ATP; read-out: IC50 or SDR50 (mM) / FLuc E.
T1 construct: firefly luciferase with C-terminal HiBiT tag, E. coli expressed
T1 sequence (P08659 whole entry, looked up): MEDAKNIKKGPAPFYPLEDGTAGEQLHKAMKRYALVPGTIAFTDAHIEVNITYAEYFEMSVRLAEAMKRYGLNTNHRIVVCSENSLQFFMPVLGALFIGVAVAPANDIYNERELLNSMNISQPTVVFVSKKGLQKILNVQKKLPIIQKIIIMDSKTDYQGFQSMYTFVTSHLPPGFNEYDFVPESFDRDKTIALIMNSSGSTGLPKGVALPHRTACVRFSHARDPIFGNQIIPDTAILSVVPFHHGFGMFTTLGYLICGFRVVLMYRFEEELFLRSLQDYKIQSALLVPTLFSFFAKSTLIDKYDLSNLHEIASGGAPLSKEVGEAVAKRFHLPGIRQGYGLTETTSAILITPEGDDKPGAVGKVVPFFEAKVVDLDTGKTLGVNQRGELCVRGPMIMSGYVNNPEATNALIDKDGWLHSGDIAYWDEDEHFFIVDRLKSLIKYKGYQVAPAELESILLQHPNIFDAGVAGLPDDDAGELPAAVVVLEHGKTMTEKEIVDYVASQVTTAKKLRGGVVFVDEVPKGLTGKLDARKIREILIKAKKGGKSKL

SMILES	IC50 [µM]
CCOc1ccc(C(=O)Nc2ccc(-c3nc4ccccc4s3)cc2)cc1[N+](=O)[O-] [NCGC00188053-01]	> 30
Oc1cc(-c2nc3ccccc3s2)cc2c1OCCN(Cc1cccn1-c1nccs1)C2 [NCGC00238878-01]	> 30
Cc1cc2c(c(-c3nc4ccccc4s3)c1)OC(CNC(=O)CCc1cccnc1)C2 (stereo not shown) [NCGC00239520-01]	17.6
Oc1cc(-c2nc3ccccc3s2)cc2c1OCCN(Cc1cccn1-c1ncccn1)C2 [NCGC00239686-01]	> 30
Cc1noc(C)c1CC(=O)N1CCOc2c(cc(-c3nc4ccccc4s3)cc2OC2CCOC2)C1 (stereo not shown) [NCGC00239833-01]	> 30
O=C(c1ccccc1C(F)(F)F)N1CCOc2c(cc(-c3nc4ccccc4s3)cc2OC2CCOC2)C1 (stereo not shown) [NCGC00240022-01]	> 30
c1ccc2sc(-c3cc4c(c(OC5CCOC5)c3)OCCN(Cc3cccn3-c3nccs3)C4)nc2c1 (stereo not shown) [NCGC00240062-01]	> 30
CC(CCc1ccc(O)cc1)N1CCOc2c(O)cc(-c3nc4ccccc4s3)cc2C1 (stereo not shown) [NCGC00240078-01]	> 30
Oc1cc(-c2nc3ccccc3s2)cc2c1OCCN(Cc1cccn1-c1ccccn1)C2 [NCGC00240089-01]	> 30
Oc1cc(-c2nc3ccccc3s2)cc2c1OCCN(Cc1cccn1-c1ccc(Cl)cn1)C2 [NCGC00240283-01]	> 30
COc1ccc(C(=O)NCC2Cc3cc(C)cc(-c4nc5ccccc5s4)c3O2)c(OC)c1OC (stereo not shown) [NCGC00240387-01]	> 30
Cc1cc2c(c(-c3nc4ccccc4s3)c1)OC(CNC(=O)c1occc1C)C2 (stereo not shown) [NCGC00240406-01]	12.4
Oc1ccc(Cl)cc1CN1CCOc2c(O)cc(-c3nc4ccccc4s3)cc2C1 [NCGC00240488-01]	> 30
Oc1cc(-c2nc3ccccc3s2)cc2c1OCCN(Cc1c[nH]nc1-c1ccc(Cl)cc1)C2 [NCGC00240676-01]	> 30
Cc1c(CN2CCOc3c(O)cc(-c4nc5ccccc5s4)cc3C2)cnn1C [NCGC00240749-01]	> 30
COC(=O)c1ccc2c(c1)C(=Cc1cc(Br)c(O)c(Br)c1)C(=O)N2 [NCGC00242004-02]	9.89
Cc1ccc(C(=O)NC2CC2)cc1-c1ccc2[nH]ncc2c1 [NCGC00242033-03]	> 30
CN(c1ccc(NC(=O)Nc2ccc(OC(F)(F)F)cc2)cc1)c1ccnc(Nc2cccc([S+](N)(=O)[O-])c2)n1 [NCGC00242042-02]	> 30
COc1cccc(-n2cnc3c(N/N=C/c4ccncc4)ncnc32)c1 [NCGC00242129-02]	17.6
O=C(Nc1n[nH]c2cc(-c3ccccc3)ccc12)C1CC1 [NCGC00242141-02]	12.4
c1ccc(Nc2ncc(-c3ccccc3)o2)cc1 [NCGC00242146-02]	0.785
O=C1Nc2ccc(C(=O)c3ccco3)cc2C1=Cc1cc(Cl)c(O)c(Cl)c1 [NCGC00242150-05]	11.1
N[S+](=O)([O-])c1cccc(N/C=C2\C(=O)Nc3ccccc32)c1 [NCGC00242167-02]	> 30
N#Cc1c(NC(=O)c2cccc3ccccc23)sc2c1CCCC2 [NCGC00242227-03]	> 30
O=C(Nc1ccccc1C(=O)O)c1ccccc1 [NCGC00245456-03]	12.4
O=C(O)c1cccc(-c2noc(-c3cc([N+](=O)[O-])cc([N+](=O)[O-])c3)n2)c1 [NCGC00250195-01]	3.13

SMILES	IC50 [µM]
O=C(O)c1cccc(-c2noc(-c3cccc([N+](=O)[O-])c3)n2)c1 [NCGC00253775-01]	0.007
Nc1ncnc2c1ncn2[C@H]1O[C@H](CO)[C@@H](O)[C@@H]1O [NCGC00262556-01]	> 30
O=C(CSc1ccc(F)cc1)Nc1ccccc1-c1nc2ccccc2s1 [NCGC00274247-01]	> 30
COc1ccc(-c2nc3cc(F)ccc3s2)cc1OC [NCGC00344018-01]	1.57
O=C(CCC[S+](=O)([O-])c1ccc(Cl)cc1)Nc1ccc(O)c(-c2nc3ccccc3s2)c1 [NCGC00347270-01]	> 30
COc1cccc(-c2nc3cc(NC(=O)c4ccc(C)c([N+](=O)[O-])c4)ccc3s2)c1 [NCGC00348177-01]	> 30
COc1cccc(-c2nc3cc(NC(=O)c4ccc(F)c(C#N)c4)ccc3s2)c1 [NCGC00350766-01]	> 30
COc1ccc(-c2nc3ncccc3[nH]2)cc1 [NCGC00375673-01]	16
O=C(O)C1CN(Cc2ccc(-c3nc4cc(Cc5ccccc5F)ccc4s3)c(F)c2)C1 [NCGC00379113-01]	> 30
Cc1cc(-c2nc3cc(F)ccc3s2)ccc1NC(=O)[C@@H](N)CCCCN [NCGC00379246-02]	2.48
CC(C)(Oc1ccc(-c2nc3cc(Cl)ccc3s2)cc1)C(=O)O [NCGC00386771-01]	8.81
Cc1ccc2nc(-c3ccc4nc(-c5ccc(NC(=O)c6cccc(Cl)c6)cc5)sc4c3)sc2c1[S+](=O)([O-])O [NCGC00386846-01]	4.42
CCCCNc1nc(N)c2[nH]c(=O)n(Cc3ccc(OCCN(C)C)nc3)c2n1 [NCGC00387452-01]	> 30
Nc1nc(=O)c2[nH]c(=O)n(C3OC(CO)C(O)C3O)c2[nH]1 (stereo not shown) [NCGC00390457-01]	> 30
Nc1nc(=O)c2[nH]c(=O)n(C3CC(O)C(CO)O3)c2[nH]1 (stereo not shown) [NCGC00390462-01]	> 30
COc1cc(-c2nc3ccccc3s2)ccc1O [NCGC00390758-02]	11.1
O=C(Nc1ccc([C@H]2OCC(=O)N(C3CCOCC3)[C@@H]2CO)cc1)c1ccc(C(F)(F)F)cc1 [NCGC00391115-01]	12.4
Cc1ccc2[nH]c([C@H]3CCN(C(C)C)C3)nc2c1 [NCGC00391182-01]	25.4
Fc1ccc2[nH]c([C@H]3CCN(Cc4ccccc4F)C3)nc2c1 [NCGC00391187-01]	14.3
Cc1ccccc1CN1CC[C@H](c2nc3ccccc3s2)C1 [NCGC00391192-01]	18
COCC(=O)Nc1nc2c(s1)C[C@]1(C)CC[C@@H]3[C@H](OC(=O)[C@H]3C)[C@H]1[C@@H]2C [NCGC00391224-01]	1.61
CC(C)c1ccc(N2C(=S)N[C@H]3[C@@H](O)[C@H](O)C[C@@H](C(=O)N(C)Cc4ccccc4)[C@H]32)cc1 [NCGC00391233-01]	11.1
Cc1nn(-c2ccc(C(C)C)cc2)c(C)c1[C@@H]1C=C[C@@H](NC(=S)NCC(C)C)C1 [NCGC00391239-01]	28.6
C[C@@H]1C(=O)O[C@H]2[C@H]1CC[C@@]1(C)Cc3sc(NC(=O)COCC(=O)O)nc3[C@@H](C)[C@H]21 [NCGC00391314-01]	5.7
C[C@@H]1C(=O)O[C@H]2[C@H]1CC[C@@]1(C)Cc3sc(NCCc4ccccn4)nc3[C@@H](C)[C@H]21 [NCGC00391315-01]	16.1
C[C@@H]1C(=O)O[C@H]2[C@H]1CC[C@@]1(C)Cc3sc(NCc4ccccc4)nc3[C@@H](C)[C@H]21 [NCGC00391358-01]	7.18

SMILES	IC50 [µM]
COCCNC(=O)[C@@H](C)C1CC[C@@]2(C)Cc3sc(CSc4ccccc4)nc3[C@@H](C)[C@@H]2[C@H]1O (stereo partly shown) [NCGC00391430-01]	11.1
CSCC(=O)N[C@H]1CCN2C(=O)c3cc(-c4ccc(SC)cc4)ccc3NC(=O)[C@H]12 [NCGC00391740-01]	11.1
COc1ccc(/C=C/c2ccc3c(c2)C(=O)N2CC[C@H](NC(=O)CCC(=O)O)[C@H]2C(=O)N3)cc1 [NCGC00391742-01]	12.4
O=C(NC[C@H]1Cn2cc(-c3ccc4c(c3)OCCCO4)nc2CO1)c1ccc2c(c1)OCO2 [NCGC00392108-01]	9.89
O=C([C@@H]1C[C@@H](O)[C@H](O)[C@@H]2NC(=S)N(c3ccc(OC(F)(F)F)cc3)[C@@H]21)N1CCCCC1 [NCGC00392138-01]	> 30
CCNC(=O)N[C@@H]1C=C[C@@H](c2c(C)nn(-c3ccc(F)cc3)c2C)C1 [NCGC00392634-01]	20.2
O=C1N(c2ccccc2)C[C@H]2CN(Cc3ccccc3)CCN12 [NCGC00393129-01]	20.2
c1ccc(-c2cn3c(n2)CO[C@@H](CNCc2cccs2)C3)cc1 [NCGC00393328-01]	20.2
COc1ccc(CN2CCOC[C@H](OCC(=O)N(C)C)C2)cc1 [NCGC00393502-01]	> 30
CSc1ccc(-c2ccc3c(c2)C(=O)N2CC[C@H](NC(=O)c4cccs4)[C@H]2C(=O)N3)cc1 [NCGC00393756-01]	12.4
CC1=C[C@@H](CNC(=O)c2ccncc2)[C@H](C(C)C)C[C@H]1CC(=O)N1CCOCC1 [NCGC00394503-01]	> 30
CN(C)c1ccc(-c2noc([C@@H]3CCCN3Cc3cnc4ccccc4c3)n2)cn1 [NCGC00394599-01]	> 30
Cc1ccc(-n2nc(C)c([C@H]3C=C[C@@H](O)C3)c2C)cc1Cl [NCGC00394636-01]	12.8
Cc1nn(-c2ccc(C(C)(C)C)cc2)c(C)c1[C@@H]1C=C[C@@H](NC(=O)c2ccco2)C1 [NCGC00394638-01]	20.2
COc1ccc(CNC(=O)C[C@@H]2C[C@@H](C(C)C)[C@H](CNC(=O)c3cccnc3)C=C2C)cc1 [NCGC00394780-01]	> 30
Cn1c([C@H]2CCN(C3CCCCC3)C2)nc2ccccc21 [NCGC00394901-01]	25.4
CC(C)(C)c1ccc(C(=O)Nc2ccc(C(O)[C@H]3COCC(=O)N3Cc3ccccc3)cc2)cc1 (stereo partly shown) [NCGC00394950-01]	> 30
O=C(Nc1ccc([C@H]2OCC(=O)N(Cc3ccncc3)[C@@H]2CO)cc1)c1ccc(C(F)(F)F)cc1 [NCGC00395114-01]	11.1
O=C(O)COCC(=O)N[C@H]1CCN2C(=O)c3cc(/C=C/c4ccccc4)ccc3NC(=O)[C@H]12 [NCGC00395144-01]	12.4
CC(C)(C)CC(=O)N1C[C@@H]2C[C@H](C1)c1ccc(NC(=O)Nc3cccc(F)c3)c(=O)n1C2 [NCGC00395227-01]	> 30
O=C(Nc1ccc(Cl)cc1)Nc1ccc2n(c1=O)C[C@H]1C[C@@H]2CN(C(=O)c2ccc3ccccc3c2)C1 [NCGC00395236-01]	12.4
COc1ccc(-c2noc([C@@H]3C[C@H](NCc4ccccn4)CN3C)n2)cc1 [NCGC00395774-01]	20.2
CC(C)(CC(=O)O)CC(=O)N1Cc2nc[nH]c2C[C@H]1c1nc(Cc2ccccc2)no1 [NCGC00396501-01]	> 30
Cc1ccccc1CN1CC[C@H](c2nc3cc(F)ccc3[nH]2)C1 [NCGC00396601-01]	25.5

— paper PMC12064818, “A general assay platform to study protein pharmacology using ligand-dependent structural dynamics” (Nature Communications, 2025)
